How the values were obtained:
α3Y168Cβ2D190C receptor = α3Y168Cβ2D190C receptor (Rattus norvegicus, UniProt P04757+P12390, D216C/Y195C); assay: Macroscopic evoked currents, two-electrode voltage-clamp, Xenopus laevis oocytes; type: cell-based; conditions: ACh alone; Hill fit; naive oocytes
α3Y168Cβ2 receptor = α3Y168Cβ2 receptor (Rattus norvegicus, UniProt P04757+P12390, Y195C); assay: as above; type: cell-based; conditions: ACh alone; Hill fit
α3β2D190C receptor = α3β2D190C receptor (Rattus norvegicus, UniProt P04757+P12390, D216C); assay: as above; type: cell-based; conditions: ACh alone; Hill fit
α3Y168Fβ2 receptor = α3Y168Fβ2 receptor (Rattus norvegicus, UniProt P04757+P12390, Y195F); assay: as above; type: cell-based; conditions: ACh alone; Hill fit
α3β2D190Q receptor = α3β2D190Q receptor (Rattus norvegicus, UniProt P04757+P12390, D216Q); assay: as above; type: cell-based; conditions: ACh alone; Hill fit
α3Y168Fβ2D190Q receptor = α3Y168Fβ2D190Q receptor (Rattus norvegicus, UniProt P04757+P12390, D216Q/Y195F); assay: as above; type: cell-based; conditions: ACh alone
α3S125Yβ2W149A receptor = α3S125Yβ2W149A receptor (Rattus norvegicus, UniProt P04757+P12390, S152Y/W175A); assay: as above; type: cell-based; conditions: ACh alone
α3S125Cβ2 receptor = α3S125Cβ2 receptor (Rattus norvegicus, UniProt P04757+P12390, S152C); assay: as above; type: cell-based; conditions: ACh alone; Hill fit
α3β2Q39C receptor = α3β2Q39C receptor (Rattus norvegicus, UniProt P04757+P12390, Q65C); assay: as above; type: cell-based
α3Q37Cβ2 receptor = α3Q37Cβ2 receptor (Rattus norvegicus, UniProt P04757+P12390, Q64C); assay: as above; type: cell-based; conditions: ACh alone; Hill fit
α3β2A127C receptor = α3β2A127C receptor (Rattus norvegicus, UniProt P04757+P12390, A153C); assay: as above; type: cell-based; conditions: ACh alone; Hill fit
α3Q37Cβ2A127C receptor = α3Q37Cβ2A127C receptor (Rattus norvegicus, UniProt P04757+P12390, A153C/Q64C); assay: as above; type: cell-based; conditions: ACh alone
α3β2A127Y receptor = α3β2A127Y receptor (Rattus norvegicus, UniProt P04757+P12390, A153Y); assay: as above; type: cell-based; conditions: ACh alone; Hill fit
α3S125Yβ2A127Y receptor = α3S125Yβ2A127Y receptor (Rattus norvegicus, UniProt P04757+P12390, A153Y/S152Y); assay: as above; type: cell-based; conditions: ACh alone
α3E173Cβ2 receptor = α3E173Cβ2 receptor (Rattus norvegicus, UniProt P04757+P12390, E200C); assay: as above; type: cell-based; conditions: ACh alone; Hill fit
α3β2R46C receptor = α3β2R46C receptor (Rattus norvegicus, UniProt P04757+P12390, R72C); assay: as above; type: cell-based; conditions: ACh alone; Hill fit
α3E173Cβ2R46C receptor = α3E173Cβ2R46C receptor (Rattus norvegicus, UniProt P04757+P12390, E200C/R46C); assay: as above; type: cell-based
α3E173Aβ2 receptor = α3E173Aβ2 receptor (Rattus norvegicus, UniProt P04757+P12390, E200A); assay: as above; type: cell-based; conditions: ACh alone; Hill fit
α3β2R46V receptor = α3β2R46V receptor (Rattus norvegicus, UniProt P04757+P12390, R72V); assay: as above; type: cell-based; conditions: ACh alone; Hill fit
α3E173Aβ2R46V receptor = α3E173Aβ2R46V receptor (Rattus norvegicus, UniProt P04757+P12390, E200A/R46V); assay: as above; type: cell-based
α3β2W149A receptor = conditions: read-out: EC50 (ACh Activation); ACh alone; Hill fit; cited from earlier work
α3S125Cβ2Q39C receptor = α3S125Cβ2Q39C receptor (Rattus norvegicus, UniProt P04757+P12390, Q65C/S152C); assay: Macroscopic evoked currents, two-electrode voltage-clamp, Xenopus laevis oocytes
[1] = thermodynamic cycle Ω from EC50s, ACh alone, location M4

Sequence of α3S125Cβ2Q39C receptor (P04757 26-499 S152C): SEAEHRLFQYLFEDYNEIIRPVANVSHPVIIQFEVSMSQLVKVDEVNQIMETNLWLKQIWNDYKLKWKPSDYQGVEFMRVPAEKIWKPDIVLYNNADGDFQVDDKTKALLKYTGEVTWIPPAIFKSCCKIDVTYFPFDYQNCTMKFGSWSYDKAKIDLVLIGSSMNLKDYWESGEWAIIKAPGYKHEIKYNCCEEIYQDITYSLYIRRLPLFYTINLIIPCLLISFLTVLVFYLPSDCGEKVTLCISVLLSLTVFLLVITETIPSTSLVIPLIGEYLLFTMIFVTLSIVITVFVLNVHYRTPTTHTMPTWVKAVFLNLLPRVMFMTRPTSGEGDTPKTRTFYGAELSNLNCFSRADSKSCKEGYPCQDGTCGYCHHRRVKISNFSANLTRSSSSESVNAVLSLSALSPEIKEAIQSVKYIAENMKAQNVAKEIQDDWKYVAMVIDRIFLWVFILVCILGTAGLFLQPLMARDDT
Sequence of α3S125Cβ2Q39C receptor (P12390 25-500 Q65C): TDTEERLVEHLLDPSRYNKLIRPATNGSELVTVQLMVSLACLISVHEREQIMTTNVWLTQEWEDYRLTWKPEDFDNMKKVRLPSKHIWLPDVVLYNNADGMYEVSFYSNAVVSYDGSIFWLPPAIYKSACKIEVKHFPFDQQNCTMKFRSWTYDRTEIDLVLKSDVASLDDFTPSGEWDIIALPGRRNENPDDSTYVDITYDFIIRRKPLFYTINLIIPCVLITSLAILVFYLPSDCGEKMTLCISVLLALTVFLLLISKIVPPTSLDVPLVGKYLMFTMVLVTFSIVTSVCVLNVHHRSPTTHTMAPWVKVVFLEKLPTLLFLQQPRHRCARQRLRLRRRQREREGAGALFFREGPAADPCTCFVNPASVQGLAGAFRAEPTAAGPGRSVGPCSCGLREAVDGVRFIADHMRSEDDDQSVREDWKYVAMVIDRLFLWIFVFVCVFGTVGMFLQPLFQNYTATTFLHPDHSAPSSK
Sequence of α3E173Aβ2R46V receptor (P04757 26-499 E200A): as the sequence (P04757 26-499 S152C) above, with C127S, E175A counted along it
Sequence of α3E173Aβ2R46V receptor (P12390 25-500 R46V): as the sequence (P12390 25-500 Q65C) above, with R22V, C41Q counted along it
Sequence of α3E173Cβ2R46C receptor (P04757 26-499 E200C): as the sequence (P04757 26-499 S152C) above, with C127S, E175C counted along it
Sequence of α3E173Cβ2R46C receptor (P12390 25-500 R46C): as the sequence (P12390 25-500 Q65C) above, with R22C, C41Q counted along it
Sequence of α3β2Q39C receptor (P04757 26-499): as the sequence (P04757 26-499 S152C) above, with C127S counted along it
Sequence of α3β2Q39C receptor (P12390 25-500 Q65C): as the sequence (P12390 25-500 Q65C) above
Sequence of α3Q37Cβ2A127C receptor (P04757 26-499 Q64C): as the sequence (P04757 26-499 S152C) above, with Q39C, C127S counted along it
Sequence of α3Q37Cβ2A127C receptor (P12390 25-500 A153C): as the sequence (P12390 25-500 Q65C) above, with C41Q, A129C counted along it

nH (ACh Activation) (α3Y168Cβ2D190C receptor): 0.68 ± 0.08 [10] | nH (ACh Activation) (α3Y168Cβ2 receptor): 0.70 ± 0.11 [11] | nH (ACh Activation) (α3β2D190C receptor): 1.05 ± 0.14 [9] | nH (ACh Activation) (α3Y168Fβ2 receptor): 0.61 ± 0.04 [12] | nH (ACh Activation) (α3β2D190Q receptor): 1.00 ± 0.15 [8] | nH (ACh Activation) (α3Y168Fβ2D190Q receptor; Hill fit): 0.83 ± 0.09 [11] | Ω(ACh) (α3Y168Fβ2D190Q receptor; thermodynamic cycle Ω from EC50s, location M1): 18 | nH (ACh Activation) (α3S125Yβ2W149A receptor; Hill fit): 0.61 ± 0.10 [6] | Ω(ACh) (α3S125Yβ2W149A receptor; thermodynamic cycle Ω from EC50s, location A2): 0.98 | nH (ACh Activation) (α3S125Cβ2 receptor): 0.64 ± 0.13 [5–7] | nH (ACh Activation) (α3β2Q39C receptor; ACh alone, Hill fit): 0.78 ± 0.12 [4] | increase in EC50 for ACh activation vs wild type (α3β2Q39C receptor; from Table 2): 2 fold | nH (ACh Activation) (α3Q37Cβ2 receptor): 1.67 ± 0.44 [4] | nH (ACh Activation) (α3β2A127C receptor): 2.09 ± 0.34 [4] | nH (ACh Activation) (α3Q37Cβ2A127C receptor; Hill fit, naive oocytes): 0.97 ± 0.13 [6] | Ω(ACh) (α3Q37Cβ2A127C receptor; thermodynamic cycle Ω from EC50s, location M3): 0.64 | nH (ACh Activation) (α3β2A127Y receptor): 1.46 ± 0.20 [5] | nH (ACh Activation) (α3S125Yβ2A127Y receptor; Hill fit): 1.06 ± 0.19 [3] | Ω(ACh) (α3S125Yβ2A127Y receptor; thermodynamic cycle Ω from EC50s, location A2/M3): 3.2 | nH (ACh Activation) (α3E173Cβ2 receptor): 1.16 ± 0.12 [7] | nH (ACh Activation) (α3β2R46C receptor): 0.88 ± 0.13 [5] | Iaverage evoked by ACh (α3E173Cβ2R46C receptor; 2 mM ACh, n = 8, one successful expression attempt): 60 ± 10 nA | nH (ACh Activation) (α3E173Cβ2R46C receptor; ACh alone, Hill fit): 0.85 ± 0.10 [5–6] | Ω(ACh) (α3E173Cβ2R46C receptor; [1]): 2.4 | nH (ACh Activation) (α3E173Aβ2 receptor): 1.77 ± 0.26 [3–6] | nH (ACh Activation) (α3β2R46V receptor): 0.92 ± 0.14 [5–7] | Iaverage evoked by ACh (α3E173Aβ2R46V receptor; 800 µM ACh, n = 8): 990 ± 130 nA | nH (ACh Activation) (α3E173Aβ2R46V receptor; ACh alone, Hill fit): 0.82 ± 0.06 [7–8] | Ω(ACh) (α3E173Aβ2R46V receptor; [1]): 15 | nH (ACh Activation) (α3S125Cβ2Q39C receptor; ACh alone, Hill fit, naive oocytes): 0.66 ± 0.09 [3–7] | decrease in EC50 for ACh activation vs wild type (α3S125Cβ2Q39C receptor; from Table 2): 60 fold | Ω(ACh) (α3S125Cβ2Q39C receptor; thermodynamic cycle Ω from EC50s, ACh alone, location A2): 0.16
SMILES: CC(=O)OCC[N+](C)(C)C [ACh, acetylcholine]
EC50 (α3β2W149A receptor): 40 ± 6 µM
